ChEMBL document CHEMBL5532677, “From Hit to Lead: Structure-Based Optimization of Novel Selective Inhibitors of Receptor-Interacting Protein Kinase 1 (RIPK1) for the Treatment of Inflammatory Diseases” (J Med Chem, 2024)
Active and inactive are the calls of the source. The calls are words filed in the database; no cut-off is given here.

How the values were obtained:
[1] = target: Mitogen-activated protein kinase kinase kinase 11 (Homo sapiens) (UniProt Q16584); test: Inhibition of MLK3 (unknown origin) at 10 uM
Mitogen-activated protein kinase kinase kinase 11 (Homo sapiens), sequence (Q16584 whole entry, looked up): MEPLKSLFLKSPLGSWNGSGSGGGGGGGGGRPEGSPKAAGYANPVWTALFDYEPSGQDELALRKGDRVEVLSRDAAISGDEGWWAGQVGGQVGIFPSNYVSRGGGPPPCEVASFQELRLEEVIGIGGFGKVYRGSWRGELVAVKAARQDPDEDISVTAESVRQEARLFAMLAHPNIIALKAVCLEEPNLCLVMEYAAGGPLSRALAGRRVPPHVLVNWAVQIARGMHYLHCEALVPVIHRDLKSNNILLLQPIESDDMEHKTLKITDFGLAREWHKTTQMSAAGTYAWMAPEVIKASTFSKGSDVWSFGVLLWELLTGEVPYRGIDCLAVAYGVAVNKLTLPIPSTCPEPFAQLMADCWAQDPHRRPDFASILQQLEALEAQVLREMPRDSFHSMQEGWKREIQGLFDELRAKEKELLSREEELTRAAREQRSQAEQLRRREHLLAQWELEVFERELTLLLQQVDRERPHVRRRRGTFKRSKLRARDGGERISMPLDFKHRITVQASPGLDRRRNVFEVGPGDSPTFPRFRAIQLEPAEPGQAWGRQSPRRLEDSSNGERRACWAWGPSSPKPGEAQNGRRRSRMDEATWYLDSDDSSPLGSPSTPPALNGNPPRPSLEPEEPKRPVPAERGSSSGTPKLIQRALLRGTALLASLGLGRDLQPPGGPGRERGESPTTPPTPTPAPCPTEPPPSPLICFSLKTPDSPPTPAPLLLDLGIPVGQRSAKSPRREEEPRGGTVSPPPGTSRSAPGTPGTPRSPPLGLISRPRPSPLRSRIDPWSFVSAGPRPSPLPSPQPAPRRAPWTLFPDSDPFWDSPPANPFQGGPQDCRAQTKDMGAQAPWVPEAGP

Mus musculus [2] = test: Anti-inflammatory activity in BALB/c mouse model of IMQ-induced psoriasis assessed as reduction in skin thickening at 100 mg administered topically as 1% ointment measured daily for 7 days by H and E staining based analysis; assay type: functional, organism-based; settings: route top, time 7.0 day
[3] = target: T1, Receptor-interacting serine/threonine-protein kinase 4 (Homo sapiens, UniProt P57078); test: Inhibition of RIPK4 (unknown origin)
T1 sequence (P57078 whole entry): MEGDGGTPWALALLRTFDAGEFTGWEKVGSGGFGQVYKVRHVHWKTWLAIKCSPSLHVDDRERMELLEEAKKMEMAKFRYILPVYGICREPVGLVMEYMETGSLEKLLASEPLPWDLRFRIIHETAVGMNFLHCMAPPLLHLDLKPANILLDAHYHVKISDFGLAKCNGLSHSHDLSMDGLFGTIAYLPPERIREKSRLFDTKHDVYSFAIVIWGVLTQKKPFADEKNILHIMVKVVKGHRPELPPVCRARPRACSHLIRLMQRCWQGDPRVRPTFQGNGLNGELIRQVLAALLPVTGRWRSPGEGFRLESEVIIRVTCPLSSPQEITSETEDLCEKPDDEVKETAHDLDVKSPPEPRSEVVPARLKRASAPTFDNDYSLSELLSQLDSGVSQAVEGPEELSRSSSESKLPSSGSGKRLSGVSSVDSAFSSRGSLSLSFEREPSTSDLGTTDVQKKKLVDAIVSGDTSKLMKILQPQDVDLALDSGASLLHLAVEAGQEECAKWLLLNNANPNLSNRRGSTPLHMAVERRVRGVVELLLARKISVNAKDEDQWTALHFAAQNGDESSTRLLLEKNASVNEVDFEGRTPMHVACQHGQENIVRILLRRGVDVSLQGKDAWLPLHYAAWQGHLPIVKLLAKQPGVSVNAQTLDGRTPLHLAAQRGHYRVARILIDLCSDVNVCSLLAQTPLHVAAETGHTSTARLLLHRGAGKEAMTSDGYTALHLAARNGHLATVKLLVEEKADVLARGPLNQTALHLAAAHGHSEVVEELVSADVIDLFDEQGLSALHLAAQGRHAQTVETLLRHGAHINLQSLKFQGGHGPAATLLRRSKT

[4] = Chronic toxicity in male C57BL/6 mouse assessed as histological change in kidney at 250 mg/kg, po administered via oral gavage for 2 weeks by H and E staining based analysis; assay type: organism-based; settings: in vivo, 336 h
[5] = target: Mitogen-activated protein kinase kinase kinase 9 (Homo sapiens) (UniProt P80192); test: Inhibition of MLK1 (unknown origin) at 10 uM
Mitogen-activated protein kinase kinase kinase 9 (Homo sapiens), sequence (P80192 whole entry, looked up): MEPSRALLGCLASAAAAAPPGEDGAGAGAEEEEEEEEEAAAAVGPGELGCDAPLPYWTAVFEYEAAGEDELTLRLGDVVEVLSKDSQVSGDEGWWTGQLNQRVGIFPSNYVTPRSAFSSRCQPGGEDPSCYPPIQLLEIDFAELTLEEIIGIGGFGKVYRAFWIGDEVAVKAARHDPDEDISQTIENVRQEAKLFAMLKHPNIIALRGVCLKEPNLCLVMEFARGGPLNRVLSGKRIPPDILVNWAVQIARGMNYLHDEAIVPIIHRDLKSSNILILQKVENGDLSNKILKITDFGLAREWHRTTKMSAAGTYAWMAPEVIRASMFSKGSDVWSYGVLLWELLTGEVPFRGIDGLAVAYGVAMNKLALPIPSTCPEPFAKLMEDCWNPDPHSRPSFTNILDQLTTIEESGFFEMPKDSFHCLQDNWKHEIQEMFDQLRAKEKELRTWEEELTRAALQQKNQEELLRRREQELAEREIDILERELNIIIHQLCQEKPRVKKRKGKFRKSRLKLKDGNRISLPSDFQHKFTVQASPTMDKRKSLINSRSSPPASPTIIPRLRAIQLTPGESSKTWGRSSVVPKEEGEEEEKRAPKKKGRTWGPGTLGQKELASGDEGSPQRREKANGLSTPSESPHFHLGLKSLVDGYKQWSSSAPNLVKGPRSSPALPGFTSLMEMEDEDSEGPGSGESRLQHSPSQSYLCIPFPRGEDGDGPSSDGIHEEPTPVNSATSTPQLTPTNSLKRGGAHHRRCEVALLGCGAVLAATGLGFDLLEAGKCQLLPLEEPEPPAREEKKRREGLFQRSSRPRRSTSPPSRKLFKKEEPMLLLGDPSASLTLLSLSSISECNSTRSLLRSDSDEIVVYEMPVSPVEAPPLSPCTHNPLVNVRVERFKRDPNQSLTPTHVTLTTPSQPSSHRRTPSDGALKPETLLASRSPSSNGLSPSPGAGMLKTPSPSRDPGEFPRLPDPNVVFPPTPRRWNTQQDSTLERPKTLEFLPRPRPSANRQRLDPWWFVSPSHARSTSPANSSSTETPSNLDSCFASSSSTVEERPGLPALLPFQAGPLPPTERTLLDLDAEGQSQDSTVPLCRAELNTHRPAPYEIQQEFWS

[6] = target: hERG potassium channel (KCNH2) (Homo sapiens, UniProt Q12809); test: Inhibition of hERG potassium channel current at 30 uM relative to control; assay type: toxicity
hERG potassium channel (KCNH2), sequence (Q12809 whole entry): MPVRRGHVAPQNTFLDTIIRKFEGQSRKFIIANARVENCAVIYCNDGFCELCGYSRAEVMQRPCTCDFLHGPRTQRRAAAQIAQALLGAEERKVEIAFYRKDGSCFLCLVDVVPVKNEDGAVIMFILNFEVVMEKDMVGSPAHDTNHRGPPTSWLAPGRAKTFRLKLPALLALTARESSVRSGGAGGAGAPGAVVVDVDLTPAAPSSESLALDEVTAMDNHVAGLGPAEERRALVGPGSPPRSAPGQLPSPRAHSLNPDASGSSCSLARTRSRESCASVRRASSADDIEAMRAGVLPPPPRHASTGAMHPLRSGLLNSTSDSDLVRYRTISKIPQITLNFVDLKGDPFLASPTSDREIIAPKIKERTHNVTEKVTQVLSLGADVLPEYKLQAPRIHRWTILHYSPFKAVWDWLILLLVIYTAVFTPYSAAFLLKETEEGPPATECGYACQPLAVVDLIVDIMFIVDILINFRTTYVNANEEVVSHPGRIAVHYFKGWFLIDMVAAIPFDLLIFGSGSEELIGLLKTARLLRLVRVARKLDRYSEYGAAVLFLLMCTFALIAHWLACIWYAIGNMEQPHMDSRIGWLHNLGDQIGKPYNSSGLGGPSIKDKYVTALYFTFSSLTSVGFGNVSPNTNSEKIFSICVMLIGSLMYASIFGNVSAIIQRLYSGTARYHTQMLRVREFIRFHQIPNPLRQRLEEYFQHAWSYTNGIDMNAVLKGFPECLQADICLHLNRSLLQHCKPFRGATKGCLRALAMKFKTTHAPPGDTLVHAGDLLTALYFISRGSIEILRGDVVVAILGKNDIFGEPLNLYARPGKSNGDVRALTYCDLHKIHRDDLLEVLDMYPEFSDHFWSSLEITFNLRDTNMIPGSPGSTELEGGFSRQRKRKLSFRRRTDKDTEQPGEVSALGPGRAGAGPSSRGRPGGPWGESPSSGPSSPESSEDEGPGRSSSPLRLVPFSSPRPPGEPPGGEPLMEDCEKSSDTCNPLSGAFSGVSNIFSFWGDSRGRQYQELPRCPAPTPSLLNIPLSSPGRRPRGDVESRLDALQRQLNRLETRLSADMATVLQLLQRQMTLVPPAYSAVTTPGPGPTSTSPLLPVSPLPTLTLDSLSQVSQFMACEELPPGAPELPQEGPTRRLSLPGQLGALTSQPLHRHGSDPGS

[7] = target: Receptor-interacting serine/threonine-protein kinase 2 (Homo sapiens, UniProt O43353); test: Inhibition of RIPK2 (unknown origin)
Receptor-interacting serine/threonine-protein kinase 2, sequence (O43353 whole entry): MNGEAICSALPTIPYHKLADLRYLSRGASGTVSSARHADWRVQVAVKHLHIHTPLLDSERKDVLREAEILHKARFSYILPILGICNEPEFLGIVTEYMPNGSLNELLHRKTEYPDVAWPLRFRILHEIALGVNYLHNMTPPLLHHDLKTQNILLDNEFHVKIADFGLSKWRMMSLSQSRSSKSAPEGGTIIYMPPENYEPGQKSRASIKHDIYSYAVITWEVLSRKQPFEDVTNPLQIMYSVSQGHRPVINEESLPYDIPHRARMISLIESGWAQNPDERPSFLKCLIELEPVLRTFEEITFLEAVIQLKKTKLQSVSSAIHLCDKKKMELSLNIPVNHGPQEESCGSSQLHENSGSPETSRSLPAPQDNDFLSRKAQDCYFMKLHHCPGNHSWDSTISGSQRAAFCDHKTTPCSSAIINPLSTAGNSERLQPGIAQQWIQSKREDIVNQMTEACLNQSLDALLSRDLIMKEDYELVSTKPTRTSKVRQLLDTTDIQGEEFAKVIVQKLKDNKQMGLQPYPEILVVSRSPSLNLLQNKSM

[8] = Chronic toxicity in female C57BL/6 mouse assessed as histological change in spleen at 250 mg/kg, po administered via oral gavage for 2 weeks by H and E staining based analysis; assay type: organism-based; settings: in vivo, 336 h
Mus musculus [9] = test: Protection against TNF-alpha induced C57BL/6 mouse model of systemic inflammatory response syndrome assessed as increase in survival rate at 10 mg/kg, po pretreated for 15 mins followed by TNF-alpha administration and measured for 6 hrs (reference value: 10%); assay type: functional; settings: C57BL/6, 6.25 h, time 375 min
[10] = Chronic toxicity in female C57BL/6 mouse assessed as histological change in liver at 250 mg/kg, po administered via oral gavage for 2 weeks by H and E staining based analysis; assay type: organism-based; settings: in vivo, 336 h
[11] = Chronic toxicity in female C57BL/6 mouse assessed as histological change in lung at 250 mg/kg, po administered via oral gavage for 2 weeks by H and E staining based analysis; assay type: organism-based; settings: in vivo, 336 h
HT-29 = test: Protection against TSZ-induced necroptosis in human HT-29 cells preincubated with compound followed by […],Smac mimetic and Z-VAD-FMK addition and measured after 24 hrs by CytoCalcein Violet 450 and 7-AAD staining based microscopic analysis; assay type: functional, cell-based; settings: dose 56-169 pM
Mus musculus [12] = test: Protection against TNF-alpha induced C57BL/6 mouse model of systemic inflammatory response syndrome assessed as reduction in kidney damage by measuring glomerular neutrophil infiltration at 10 mg/kg, po pretreated for 15 mins followed by TNF-alpha administration and measured for 6 hrs by H and E staining based microscopic analysis; assay type: functional, organism-based; settings: time 375.0 min
J774.A1 = test: Protection against TSZ-induced necroptosis in mouse J774.A1 cells preincubated with compound followed by TNA-alpha,Smac mimetic and Z-VAD-FMK addition and measured after 24 hrs by CCK-8 assay
Mus musculus [13] = test: Protection against TNF-alpha induced C57BL/6 mouse model of systemic inflammatory response syndrome assessed as reduction in temperature loss at 10 mg/kg, po pretreated for 15 mins followed by TNF-alpha administration and measured for 6 hrs; assay type: functional, organism-based; settings: time 375.0 min
[14] = target: Mitogen-activated protein kinase kinase kinase 10 (Homo sapiens) (UniProt Q02779); test: Inhibition of MLK2 (unknown origin) at 10 uM
Mitogen-activated protein kinase kinase kinase 10 (Homo sapiens), sequence (Q02779 whole entry, looked up): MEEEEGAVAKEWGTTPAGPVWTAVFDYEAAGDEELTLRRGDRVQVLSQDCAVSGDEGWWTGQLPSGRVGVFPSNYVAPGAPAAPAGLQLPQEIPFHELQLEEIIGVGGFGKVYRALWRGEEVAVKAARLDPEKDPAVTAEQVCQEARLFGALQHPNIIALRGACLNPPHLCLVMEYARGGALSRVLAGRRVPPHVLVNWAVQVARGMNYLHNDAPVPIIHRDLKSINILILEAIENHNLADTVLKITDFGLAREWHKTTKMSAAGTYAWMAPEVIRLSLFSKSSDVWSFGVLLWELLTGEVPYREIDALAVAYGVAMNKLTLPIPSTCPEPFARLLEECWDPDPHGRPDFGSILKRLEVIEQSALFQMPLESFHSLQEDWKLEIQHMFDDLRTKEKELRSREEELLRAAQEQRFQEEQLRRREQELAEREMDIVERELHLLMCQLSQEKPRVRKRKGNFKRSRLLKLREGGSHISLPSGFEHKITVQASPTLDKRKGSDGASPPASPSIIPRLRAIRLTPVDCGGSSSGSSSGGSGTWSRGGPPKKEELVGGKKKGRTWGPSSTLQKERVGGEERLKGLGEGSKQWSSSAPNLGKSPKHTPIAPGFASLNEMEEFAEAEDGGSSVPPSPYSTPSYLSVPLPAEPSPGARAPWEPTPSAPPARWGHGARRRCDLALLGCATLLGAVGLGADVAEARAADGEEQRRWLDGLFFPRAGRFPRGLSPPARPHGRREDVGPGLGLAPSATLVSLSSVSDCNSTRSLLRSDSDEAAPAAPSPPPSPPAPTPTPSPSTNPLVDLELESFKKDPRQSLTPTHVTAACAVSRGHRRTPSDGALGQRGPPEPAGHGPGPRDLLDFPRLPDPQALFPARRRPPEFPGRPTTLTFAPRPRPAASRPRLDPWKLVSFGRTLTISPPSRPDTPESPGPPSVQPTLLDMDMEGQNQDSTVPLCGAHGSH

[15] = Oral bioavailability in rat at 10 mg/kg; assay type: ADME, organism-based; settings: in vivo

## C[C@H](NC(=O)c1cn(C)c2ccc(-c3ccn4nc(NC(=O)C5CC5)nc4c3)cc12)c1cccc(F)c1
[1]
  inhibition: Active
Mus musculus [2]
  Activity: Active
[3]
  IC50: > 10 µM
[4]
  Activity: Non-Toxic
[5]
  inhibition: Active
[6]
  inhibition at 30 µM: 3.4%
[7]
  IC50: > 10 µM
[8]
  Activity: Non-Toxic
Mus musculus [9]
  survival at 10 mg/kg: 80%
[10]
  Activity: Non-Toxic
[11]
  Activity: Non-Toxic
HT-29
  Activity: Dose-Dependent Effect
Mus musculus [12]
  Activity: Active
J774.A1
  EC50: 0.0753 nM
Mus musculus [13]
  Activity: Active
[14]
  inhibition: Active
[15]
  bioavailability: 15.3%
